Source: US9956291B2, “Nanoformulation and methods of use of thyroid receptor beta1 agonists for liver targeting” (priority 2012, dated 2018)

Columns and labels:
high fat diet mice = assay: Nutritionally-induced hypercholesterolemia model (high fat diet mice); type: in vivo
Experimental: Mice were fed a high fat diet (TD.06414, Harlan Research Diet, Inc., Indianapolis, Ind.) that provides […] from fat sources increased total cholesterol. […] Male C57BL/6 mice were fed either a commercial chow diet (Prolab RMH 3000, PMI feeds, St. Louis, Mo.) to serve as a negative control, or a high fat diet (TD.06414). Plasma was collected once weekly to monitor the level of LDL-C, total cholesterol, HDL-C, and triglyceride. […] One group was treated with vehicle, and the other groups are treated with TRβ1 agonist compounds versus its Nano-targeted ones at different doses.
High-fat diet (HFD)-induced dyslipidemia in mice. FIG. 12 depicts dose-ranging of Chitosan-PLGA NP-encapsulated GC-1 and conjugated with Glycyrrhetinic acid versus un-encapsulated GC-1 for lowering total cholesterol in HFD mice, in accordance with embodiments of the present invention.

LDLR [1] = assay: Test for LDLR up-regulation in transfected HEK-293 cells; type: cell-based, human
Experimental: (§1) The expression vector of human LDLR was constructed under the control of the cytomegalovirus promoter-enhancer (pCMV-LDLR). These constructs were used to transiently transfect mammalian cells, and cells were subjected to SDS-PAGE and immunoblot analysis using an LDLR antibody. […] Using this assay, compounds were tested for their ability to reduce the degradation of the LDLR. HEK-293 cells grown in 96-well plates overnight and transfected with LDLR were used. Compounds dissolved in DMSO or vehicle were added to the culture media, and incubated for 24-48 hours. The cells were then lysed. Both cell lysate and supernatant are subjected to quantitation using the above immunoassay. Compounds that increase the up-regulation of LDLR were selected. A similar assay was implemented using the HepG2 cells, since these cells express the LDLR endogenously.

[2] = cited from earlier work
LDLR [3] = assay: Test for LDLR up-regulation in HepG2 cells (endogenous LDLR); type: cell-based, human
Experimental: as §1

[4] = in vivo; cited from earlier work
cartilage = details: dogs, up to 12 months; cited from earlier work
[5] = moderately overweight and hypercholesterolemic subjects, two weeks

Row | SMILES | dose of maximum effect on total cholesterol (toward normal regular diet levels) (high fat diet mice; IP daily, week 1 and week 2) | lowering of total cholesterol (high fat diet mice; IP daily, week 1 and week 2, dose-ranging) | LDLR up-regulation (LDLR [1]) | lowering serum cholesterol and triglyceride ([2]; Phase I clinical trial) | LDLR up-regulation (LDLR [3]) | serum cholesterol and triglyceride [4] | reduction of serum total cholesterol (high fat diet mice; 0.1 mg/Kg daily for 6 days) | cartilage damage (cartilage) | effects on the heart [2, 5] | serum total and LDL cholesterol, apoB levels [2, 5]
1 | Cc1cc(OCC(=O)O)cc(C)c1Cc1ccc(O)c(C(C)C)c1 [GC-1] | 1.0 mg/kg | dose-dependent lowering of total cholesterol | None of the TR beta agonists including GC-1, KB-2115 or their nanoformulations resulted in any significant changes | effective in lowering serum cholesterol and triglyceride | None of the TR beta agonists including GC-1, KB-2115 or their nanoformulations resulted in any significant changes | lower serum cholesterol and triglyceride | – | – | – | –
2 | CC(C)c1cc(Oc2c(Br)cc(NC(=O)CC(=O)O)cc2Br)ccc1O [KB-2115] | – | – | None of the TR beta agonists including GC-1, KB-2115 or their nanoformulations resulted in any significant changes | – | None of the TR beta agonists including GC-1, KB-2115 or their nanoformulations resulted in any significant changes | lower serum cholesterol and triglyceride | 60-80% | Cartilage damage was observed | without detectable effects on the heart | reduced
